Measurements: patent publication US10760110B2, “Antibiotic testing and screening system” (priority 2017, dated 2020)
Where two headings read alike, the source gives them in different places.

Test system: K. pneumoniae NVT1001 strains with ESBL or AmpC β-lactamase plasmids
Assay: Etest MIC of β-lactams, OmpK35/36 loss, ΔramR and/or extended-spectrum β-lactamase and AmpC β-lactamase (Table 8)
Type: cell-based, Klebsiella pneumoniae
Details: for MIC: Klebsiella pneumoniae
Method: DNA fragments of the resistance genes along with their flanking regions were amplified from clinical plasmids via PCR with specific primer pairs. The resulting PCR fragments were digested and then cloned into the plasmid pACYC177 or pACYC184. The resulting plasmids were then transformed into K. pneumoniae strain NVT1001 via electroporation. The recombinant bacteria were plated onto LB agar plates containing kanamycin (50 mg/L) or chloramphenicol (50 mg/L), and the presence of the cloned gene was confirmed via PCR and DNA sequencing.
The MICs of antibiotics were determined using the Etest (Biodisk AB, Sweden) according to the manufacturer's instructions. The MICs from the Etest, which fall between standard two-fold dilutions, were rounded up to the next highest two-fold value. The MICs of ceftazidime and cefotaxime against K. pneumoniae NVT1001 harbouring the pACYC177 plasmid with blaOXA-48 were further determined using a broth microdilution test according to the recommendations of the CLSI,^25 and the results were interpreted according to the breakpoints established by the CLSI in 2017.^25 Meanwhile, due to the lack of CLSI breakpoints in 2016 and 2017, the results for cephalothin were interpreted according to the breakpoints established by the CLSI in 2015,^26 and the results for moxifloxacin were interpreted according to the breakpoints established by the EUCAST in 2017.^27

[1] = CMY-2 on pACYC177, WT (NVT1001), read-out: MIC
[2] = CMY-2 on pACYC177, Δ35 (ΔompK35 mutant)
[3] = CMY-2 on pACYC177, Δ35/36 (ΔompK35/36 mutant)
[4] = CMY-2 on pACYC177, Δ36 (ΔompK36 mutant)
[5] = CMY-2 on pACYC177, ΔramR mutant
[6] = CMY-2 on pACYC177, ΔramRΔ35 (ΔramRΔompK35 mutant)
[7] = CMY-2 on pACYC177, ΔramRΔ35/36 (ΔramRΔompK35/36 mutant)
[8] = CMY-2 on pACYC177, ΔramRΔ36 (ΔramRΔompK36 mutant)
[9] = CTX-M-14 on pACYC177, WT (NVT1001), read-out: MIC
[10] = CTX-M-14 on pACYC177, Δ35 (ΔompK35 mutant)
[11] = CTX-M-14 on pACYC177, Δ35/36 (ΔompK35/36 mutant)
[12] = CTX-M-14 on pACYC177, Δ36 (ΔompK36 mutant)
[13] = CTX-M-14 on pACYC177, ΔramR mutant
[14] = CTX-M-14 on pACYC177, ΔramRΔ35 (ΔramRΔompK35 mutant)
[15] = CTX-M-14 on pACYC177, ΔramRΔ35/36 (ΔramRΔompK35/36 mutant)
[16] = CTX-M-14 on pACYC177, ΔramRΔ36 (ΔramRΔompK36 mutant)
[17] = CTX-M-15 on pACYC177, WT (NVT1001), read-out: MIC
[18] = CTX-M-15 on pACYC177, Δ35 (ΔompK35 mutant)
[19] = CTX-M-15 on pACYC177, Δ35/36 (ΔompK35/36 mutant)
[20] = CTX-M-15 on pACYC177, Δ36 (ΔompK36 mutant)
[21] = CTX-M-15 on pACYC177, ΔramR mutant
[22] = CTX-M-15 on pACYC177, ΔramRΔ35 (ΔramRΔompK35 mutant)
[23] = CTX-M-15 on pACYC177, ΔramRΔ35/36 (ΔramRΔompK35/36 mutant)
[24] = CTX-M-15 on pACYC177, ΔramRΔ36 (ΔramRΔompK36 mutant)
[25] = DHA-1-AmpR on pACYC177, WT (NVT1001), read-out: MIC
[26] = DHA-1-AmpR on pACYC177, Δ35 (ΔompK35 mutant)
[27] = DHA-1-AmpR on pACYC177, Δ35/36 (ΔompK35/36 mutant)
[28] = DHA-1-AmpR on pACYC177, Δ36 (ΔompK36 mutant)
[29] = DHA-1-AmpR on pACYC177, ΔramR mutant
[30] = DHA-1-AmpR on pACYC177, ΔramRΔ35 (ΔramRΔompK35 mutant)
[31] = DHA-1-AmpR on pACYC177, ΔramRΔ35/36 (ΔramRΔompK35/36 mutant)
[32] = DHA-1-AmpR on pACYC177, ΔramRΔ36 (ΔramRΔompK36 mutant)
[33] = SHV-12 on pACYC177, WT (NVT1001), read-out: MIC
[34] = SHV-12 on pACYC177, Δ35 (ΔompK35 mutant)
[35] = SHV-12 on pACYC177, Δ35/36 (ΔompK35/36 mutant)
[36] = SHV-12 on pACYC177, Δ36 (ΔompK36 mutant)
[37] = SHV-12 on pACYC177, ΔramR mutant
[38] = SHV-12 on pACYC177, ΔramRΔ35 (ΔramRΔompK35 mutant)
[39] = SHV-12 on pACYC177, ΔramRΔ35/36 (ΔramRΔompK35/36 mutant)
[40] = SHV-12 on pACYC177, ΔramRΔ36 (ΔramRΔompK36 mutant)
[41] = no supplemental plasmid, WT (NVT1001), read-out: MIC
[42] = no supplemental plasmid, Δ35 (ΔompK35 mutant)
[43] = no supplemental plasmid, Δ35/36 (ΔompK35/36 mutant)
[44] = no supplemental plasmid, Δ36 (ΔompK36 mutant)
[45] = no supplemental plasmid, ΔramR mutant
[46] = no supplemental plasmid, ΔramRΔ35 (ΔramRΔompK35 mutant)
[47] = no supplemental plasmid, ΔramRΔ35/36 (ΔramRΔompK35/36 mutant)
[48] = no supplemental plasmid, ΔramRΔ36 (ΔramRΔompK36 mutant)

C[C@@H](O)[C@H]1C(=O)N2C(C(=O)O)=C(S[C@@H]3CN[C@H](CNS(N)(=O)=O)C3)[C@H](C)[C@H]12 [Doripenem]
MIC [1]: 0.25 mg/L
MIC [2]: 0.25 mg/L
MIC [3]: 8 mg/L
MIC [4]: 1 mg/L
MIC [5]: 0.125 mg/L
MIC [6]: 0.125 mg/L
MIC [7]: 4 mg/L
MIC [8]: 4 mg/L
MIC [9]: 0.125 mg/L
MIC [10]: 0.125 mg/L
MIC [11]: 1 mg/L
MIC [12]: 0.125 mg/L
MIC [13]: 0.06 mg/L
MIC [14]: 0.06 mg/L
MIC [15]: 0.5 mg/L
MIC [16]: 0.5 mg/L
MIC [17]: 0.125 mg/L
MIC [18]: 0.125 mg/L
MIC [19]: 4 mg/L
MIC [20]: 0.25 mg/L
MIC [21]: 0.125 mg/L
MIC [22]: 0.125 mg/L
MIC [23]: 2 mg/L
MIC [24]: 2 mg/L
MIC [25]: 0.125 mg/L
MIC [26]: 0.125 mg/L
MIC [27]: 8 mg/L
MIC [28]: 0.25 mg/L
MIC [29]: 0.125 mg/L
MIC [30]: 0.125 mg/L
MIC [31]: 4 mg/L
MIC [32]: 4 mg/L
MIC [33]: 0.125 mg/L
MIC [34]: 0.125 mg/L
MIC [35]: 1 mg/L
MIC [36]: 0.125 mg/L
MIC [37]: 0.06 mg/L
MIC [38]: 0.06 mg/L
MIC [39]: 0.5 mg/L
MIC [40]: 0.5 mg/L
MIC [41]: 0.06 mg/L
MIC [42]: 0.06 mg/L
MIC [43]: 0.125 mg/L
MIC [44]: 0.06 mg/L
MIC [45]: 0.03 mg/L
MIC [46]: 0.03 mg/L
MIC [47]: 0.5 mg/L
MIC [48]: 0.25 mg/L
effects on the MIC (production of ESBLs tested alone): no significant (≥4-fold) effects
effects on the MIC (strains with ΔramR, with or without ESBLs or AmpC β-lactamases): no significant (≥4-fold) effects

C[C@H]1[C@H](NC(=O)/C(=N\OC(C)(C)C(=O)O)c2csc(N)n2)C(=O)N1S(=O)(=O)O [Aztreonam]
MIC [1]: 64 mg/L
MIC [2]: 128 mg/L
MIC [3]: 256 mg/L
MIC [4]: 64 mg/L
MIC [5]: 64 mg/L
MIC [6]: 64 mg/L
MIC [7]: 64 mg/L
MIC [8]: 64 mg/L
MIC [9]: 2 mg/L
MIC [10]: 16 mg/L
MIC [11]: 32 mg/L
MIC [12]: 2 mg/L
MIC [13]: 16 mg/L
MIC [14]: 16 mg/L
MIC [15]: 32 mg/L
MIC [16]: 16 mg/L
MIC [17]: 256 mg/L
MIC [18]: > 256 mg/L
MIC [19]: > 256 mg/L
MIC [20]: > 256 mg/L
MIC [21]: > 256 mg/L
MIC [22]: > 256 mg/L
MIC [23]: > 256 mg/L
MIC [24]: > 256 mg/L
MIC [25]: 1 mg/L
MIC [26]: 8 mg/L
MIC [27]: 16 mg/L
MIC [28]: 1 mg/L
MIC [29]: 4 mg/L
MIC [30]: 4 mg/L
MIC [31]: 8 mg/L
MIC [32]: 8 mg/L
MIC [33]: 128 mg/L
MIC [34]: > 256 mg/L
MIC [35]: > 256 mg/L
MIC [36]: 128 mg/L
MIC [37]: > 256 mg/L
MIC [38]: > 256 mg/L
MIC [39]: > 256 mg/L
MIC [40]: > 256 mg/L
MIC [41]: 0.03 mg/L
MIC [42]: 0.25 mg/L
MIC [43]: 0.5 mg/L
MIC [44]: 0.06 mg/L
MIC [45]: 0.5 mg/L
MIC [46]: 0.5 mg/L
MIC [47]: 1 mg/L
MIC [48]: 1 mg/L

C[C@@H](O)[C@H]1C(=O)N2C(C(=O)O)=C(SCCN=CN)C[C@H]12 [Imipenem]
MIC [1]: 1 mg/L
MIC [2]: 1 mg/L
MIC [3]: > 32 mg/L
MIC [4]: 4 mg/L
MIC [5]: 1 mg/L
MIC [6]: 1 mg/L
MIC [7]: 32 mg/L
MIC [8]: 32 mg/L
MIC [9]: 0.5 mg/L
MIC [10]: 0.5 mg/L
MIC [11]: 1 mg/L
MIC [12]: 0.5 mg/L
MIC [13]: 0.25 mg/L
MIC [14]: 0.25 mg/L
MIC [15]: 0.5 mg/L
MIC [16]: 0.5 mg/L
MIC [17]: 0.5 mg/L
MIC [18]: 0.5 mg/L
MIC [19]: 4 mg/L
MIC [20]: 0.5 mg/L
MIC [21]: 0.5 mg/L
MIC [22]: 0.25 mg/L
MIC [23]: 2 mg/L
MIC [24]: 2 mg/L
MIC [25]: 0.5 mg/L
MIC [26]: 0.5 mg/L
MIC [27]: 32 mg/L
MIC [28]: 0.5 mg/L
MIC [29]: 0.25 mg/L
MIC [30]: 0.25 mg/L
MIC [31]: 16 mg/L
MIC [32]: 16 mg/L
MIC [33]: 0.5 mg/L
MIC [34]: 0.5 mg/L
MIC [35]: 1 mg/L
MIC [36]: 0.5 mg/L
MIC [37]: 0.25 mg/L
MIC [38]: 0.25 mg/L
MIC [39]: 1 mg/L
MIC [40]: 0.5 mg/L
MIC [41]: 0.5 mg/L
MIC [42]: 0.5 mg/L
MIC [43]: 0.5 mg/L
MIC [44]: 0.5 mg/L
MIC [45]: 0.25 mg/L
MIC [46]: 0.25 mg/L
MIC [47]: 0.5 mg/L
MIC [48]: 0.5 mg/L
